Activity calls are given as the source filed them. No cut-off for these calls is given here.
Tests used:
[1] = tested on: Radical scavenging activity; experiment: Antioxidant activity assessed as DPPH radical scavenging activity at 0.01 mM after 20 mins; assay type: functional
[2] = tested on: Radical scavenging activity; experiment: Antioxidant activity assessed as DPPH radical scavenging activity at 0.05 mM after 60 mins; assay type: functional
[3] = Antioxidant activity assessed as inhibition of AAPH-induced lipid peroxidation at 100 uM; assay type: functional
Rattus norvegicus = experiment: Antiinflammatory activity in rat assessed as inhibition of carrageenan-induced paw edema at 0.01 mmol/kg, ip after 3.5 hrs; assay type: functional
[4] = tested on: Radical scavenging activity; experiment: Antioxidant activity assessed as DPPH radical scavenging activity at 0.05 mM after 20 mins; assay type: functional
[5] = tested on: Radical scavenging activity; experiment: Antioxidant activity assessed as DPPH radical scavenging activity at 0.01 mM after 60 mins; assay type: functional
[6] = Inhibition of soybean lipoxygenase by UV absorbance based assay; set-up: species or system Glycine max
[7] = Antioxidant activity assessed as superoxide radical scavenging activity at 100 uM by nitroblue tetrazolium method; assay type: functional
Glycine max = experiment: Inhibition of soybean lipoxygenase at 100 uM by UV absorbance based assay

With O=c1ccc2ccc(O)cc2o1 [UMBELLIFERONE] the Activity [1] was 2%, the Activity [2] was “inactive” and the inhibition [3] was 83%. The Activity (Rattus norvegicus) was “inactive”, the Activity [4] was “inactive” and the Activity [5] was 2%. The IC50 [6] was 43 µM and the inhibition [7] was 65%.

With O=c1ccc2c(o1)c(O)cc1ccccc12 the Activity [1] was 46%, the Activity [2] was 20% and the inhibition [3] was 100%. The inhibition in vivo at 10 µmol/kg (Rattus norvegicus) was 18%, the Activity [4] was 22% and the Activity [5] was 54%. The inhibition (Glycine max) was “inactive” and the inhibition [7] was 79%.

Compound Cc1cc(O)cc2oc(=O)ccc12 has an Activity [1] of 31%, an Activity [2] of 43% and an inhibition [3] of 30%. For the same compound, the Activity [4] was 43%, the Activity [5] was 54% and the inhibition (Glycine max) was 27%. For the same compound, the inhibition [7] was 61%.

Compound O=c1ccc2c(cc(O)c3ccccc32)o1 has an Activity [1] of 55%, an Activity [2] of 31% and an inhibition [3] of 57%. For the same compound, the inhibition in vivo at 10 µmol/kg (Rattus norvegicus) was 15%, the Activity [4] was 28% and the Activity [5] was 51%. For the same compound, the inhibition (Glycine max) was 38% and the inhibition [7] was “inactive”.

With O=c1ccc2cccc(O)c2o1 [8-Hydroxycoumarin] the Activity [1] was 33%, the Activity [2] was 30% and the inhibition [3] was 28%. It also gave an inhibition in vivo at 10 µmol/kg (Rattus norvegicus) of 18%, an Activity [4] of 31% and an Activity [5] of 32%. For the same compound, the inhibition (Glycine max) was 37% and the inhibition [7] was 56%.

With Cc1ccc2ccc(=O)oc2c1 the Activity [1] was 2%, the Activity [2] was “inactive” and the inhibition in vivo at 10 µmol/kg (Rattus norvegicus) was 55%. For the same compound, the Activity [4] was “inactive”, the Activity [5] was 2% and the inhibition (Glycine max) was 89%.

In the case of Cc1c(O)ccc2ccc(=O)oc12, the Activity [1] is reported as 26%, the Activity [2] is reported as 15% and the inhibition [3] is reported as “inactive”. For the same compound, the Activity [4] was 14%, the Activity [5] was 27% and the inhibition (Glycine max) was 25%. For the same compound, the inhibition [7] was 60%.

With O=C(O)/C=C/c1ccc(O)c(O)c1 [CAFFEIC ACID] the IC50 [6] was 600 µM and the inhibition [7] was 71%.

With O=c1ccc2ccccc2o1 [COUMARIN] the Activity [1] was 5%, the Activity [2] was “inactive” and the inhibition in vivo at 10 µmol/kg (Rattus norvegicus) was 30%. The Activity [4] was “inactive”, the Activity [5] was 21% and the inhibition (Glycine max) was 15%.

For Cc1c(C)c2c(c(C)c1O)CCC(C)(C(=O)O)O2 (stereo not drawn), the inhibition [3] was 73%.

For O=c1ccc2cc(O)c3ccccc3c2o1, the Activity [1] was 77%, the Activity [2] was 72% and the inhibition [3] was 100%. The inhibition in vivo at 10 µmol/kg (Rattus norvegicus) was 39%, the Activity [4] was 65% and the Activity [5] was 89%. For the same compound, the IC50 [6] was 100 µM and the inhibition [7] was 61%.

COc1ccc2c(c1)c(CC(=O)O)c(C)n2C(=O)c1ccc(Cl)cc1 [INDOMETHACIN] gave an inhibition in vivo at 10 µmol/kg (Rattus norvegicus) of 47%.

For CC(Cc1ccc(O)c(O)c1)C(C)Cc1ccc(O)c(O)c1 (stereo not drawn), the Activity [1] was 81%, the Activity [2] was 72% and the Activity [4] was 68%. The Activity [5] was 83%.

O=c1ccc2cc(O)c3c(c2o1)CCCC3 gave an Activity [1] of 44%, an Activity [2] of 38% and an inhibition [3] of 42%. It also gave an Activity [4] of 35%, an Activity [5] of 40% and an inhibition (Glycine max) of 12%. For the same compound, the inhibition [7] was 68%.

Work on Cc1cc2oc(=O)ccc2cc1O yielded an Activity [1] of 51%, an Activity [2] of 20% and an inhibition [3] of 24%. For the same compound, the Activity [4] was 22%, the Activity [5] was 51% and the inhibition (Glycine max) was 3%. The inhibition [7] was 54%.

— ChEMBL document CHEMBL1136858, “Synthesis of hydroxycoumarins and hydroxybenzo[f]- or [h]coumarins as lipid peroxidation inhibitors” (Bioorg Med Chem Lett, 2009)
